Test results as given in paper PMC7156458, “Synthetic biology based construction of biological activity-related library of fungal decalin-containing diterpenoid pyrones” (Nature Communications, 2020).
“And” between values parts separate entries of the source, which are not always exact repeats. Equal values may be shown once.

Legend:
[1] = tested on: BSY-1; assay: cells; parameters: species or system JFCR39 human cancer cell lines; JFCR39 panel growth inhibition, sulforhodamine B total protein after 48 h; conditions: for GI50: BSY-1, 48 h
Summary of the method: (§1)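 Human cancer lines from the JFCR39 panel were cultured in RPMI-1640 with 5% FBS and 1 µg mL-1 kanamycin at 37°C, 5% CO2. Cells were exposed to compound for 48 hours, and growth was measured as total cellular protein by sulforhodamine B staining; GI50 from duplicate assays.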

[2] = tested on: MKN74; assay: cells; parameters: species or system JFCR39 human cancer cell lines; JFCR39 panel growth inhibition, sulforhodamine B total protein after 48 h; conditions: for GI50: Homo sapiens, MKN-74, 48 h
Summary of the method: as §1

[3] = tested on: NCI-H226; assay: cells; parameters: species or system JFCR39 human cancer cell lines; JFCR39 panel growth inhibition, sulforhodamine B total protein after 48 h; conditions: for GI50: Homo sapiens, NCI-H226, 48 h
Summary of the method: as §1

[4] = tested on: OVCAR-8; assay: cells; parameters: species or system JFCR39 human cancer cell lines; JFCR39 panel growth inhibition, sulforhodamine B total protein after 48 h; conditions: for GI50: Homo sapiens, OVCAR-8, 48 h
Summary of the method: as §1

[5] = tested on: St-4; assay: cells; parameters: species or system JFCR39 human cancer cell lines; JFCR39 panel growth inhibition, sulforhodamine B total protein after 48 h; conditions: for GI50: Homo sapiens, St-4, 48 h
Summary of the method: as §1

[6] = tested on: MCF-7 cells; assay: mammosphere formation assay; type: cell-based, human; conditions: MCF-7, 5 μM; for MFE (%) ave / MFE (control = 1) ave / MFE (%): 7 days; for MFE (%) ave: mean of 3, control 0.87; for MFE (control = 1) ave: relative to control = 1; for MFE (%): single replicates
Experimental: (§2) We also evaluated antiproliferative activity against cancer stem cells (CSCs), which are a small sub-population in tumour bulk identified in most cancer cells and clinical samples[52]. CSCs have been a major problem in cancer therapy because they are responsible for recurrence, metastasis and drug resistance to chemotherapeutic agents that affect proliferative cells[53]–[56]. Anti-CSC activity was evaluated by the inhibition of sphere-forming ability, a well-studied method to enrich the CSC-like population, and selective cytotoxicity against one of the most reliable CSC markers, aldehyde dehydrogenase (ALDH)-positive cells. […] Low-toxicity 16 was also added as a negative control. […] We next evaluated the three DDPs that inhibited mammosphere formations against ALDH-positive cells, a functional marker for breast CSCs. MCF-7 cells were treated with 1 μM of 11, 12 or 22, and the ALDH-positive cell population was analysed by using a fluorescence activated cell sorter (Supplementary Fig. 46b). […] Thus, for the first time, we successfully found DDPs with potent antiproliferative effects on the CSC-like population in MCF-7 cells, which may lead to new anti-CSC drugs.
(§3) Fig. 5 DDPs show anti-CSC activity in breast cancer cell line MCF-7. a Effect of DDPs on mammosphere formation. After the cells were cultured in the presence of 5 μM DDPs for 7 days, the number of mammospheres was microscopically counted and the percentage of mammosphere-forming cells was determined as mammosphere-forming efficiency (MFE; %). Data represent mean ± s.d. from three independent replicate experiments. P-values were calculated by a two-sided unpaired Student’s t-test, compared with control. b Micrographs show representative images of mammosphere formation from three independent replicate experiments using compound 11, 12, 16, 22. The scale bar, […]. c Effect of DDPs (1 μM, 3 days) on ALDH-positive cells in MCF-7 cells. Data represent mean ± s.d. from three independent replicate experiments. P-values were calculated by a two-sided unpaired Student’s t-test, compared with control. d Dose-dependent effect of compound 12 on ALDH-positive cells in MCF-7 cells. Data represent mean ± s.d. from three independent replicate experiments. P-values were calculated by a two-sided unpaired Student’s t-test. Source data underlying Fig. 5a, c, d are provided in a Source Data file.

[7] = tested on: ALDH-positive cells in MCF-7 cells; assay: ALDH-positive cell population (ALDEFLUOR, flow cytometry); type: cell-based, human; conditions: MCF-7, 1 μM; for ALDH-positive cells ave (fold) / ALDH-positive cells ave / ALDH-positive cells (%): 3 days; for ALDH-positive cells ave (fold): control = 1; for ALDH-positive cells ave: mean of 3, control 1.4; for ALDH-positive cells (%): single replicates
Experimental: as §2, §3
!" ' ' '! !" ' ' '! !" ' ' '!!" ' ' '!!" ' ' '!!" ' ' '!!" ' ' '!!" ' ' '! !" ' ' '! !" ' ' '! !" ' ' '! !"#$ ( % ) * '! '' '# '+ '$ '( '% […]
Main population Single cells Single cells
(negative control) Without DEAB […]
P-values are calculated using a two-sided unpaired Student’s t-test; * p < 0.05, ** p < 0.01, compared with control. b, Gating strategy of flow cytometry analysis for detecting ALDH-positive cells. All samples were analyzed by sequential gating including main population (G1), single cells (G2, G3). Negative control with DEAB was used to establish G4 (ALDH-negative cells) and G5 (ALDH-positive cells). […]
Policy information about cell lines […]
were distributed from National Cancer Institute (Frederick, MD). HT-29, MCF-7, DU-145 and PC-3 were purchased from […]

[8] = tested on: hepatitis B virus (HBV), measles virus (MV), Epstein-Barr virus (EBV), herpes simplex virus (HSV); assay: preliminary anti-viral screening (other viruses); type: cell-based
Text: We examined the inhibitory activities of DDPs against various species of bacteria (both gram-negative and gram-positive bacteria), fungi and viruses. […] In contrast, preliminary screening of the DDPs for anti-viral agents with hepatitis B virus (HBV), measles virus (MV), Epstein-Barr virus (EBV), herpes simplex virus (HSV) and human immunodeficiency virus-1 (HIV-1) indicated their selective inhibition of HIV.

[9] = 48 h, inhibitor, Log GI50, 48 h

Structure (SMILES) | GI50 [1] [µM] | GI50 [2] [µM] | GI50 [3] [µM] | GI50 [4] [µM] | GI50 [5] [µM] | MFE (%) ave [6] [%] | MFE (control = 1) ave [6] | MFE (%) [6] | effect on other viruses [8] | also measured
C=C1CCC2C(C)(CCC=C(C)C)C(O)CCC2(C)C1Cc1c(OC)oc(CO)c(C(=O)OC)c1=O (centres unmarked) [Compound 13] | 13.9 | 14.8 | 16.9 | 17.1 | 21.9 |  |  |  |  | 
C=C1CC[C@@H]2[C@](C)(CC[C@H]3O[C@H](C=C(C)C)C[C@@]23C)[C@@H]1Cc1c(OC)oc(CO)c(C(=O)OC)c1=O [Compound 21] | 14.9 | 19.8 | 18.2 | 16.7 | 20 |  |  |  |  | 
C=C1CCC2C(C)(CC(=O)C=C(C)C)C(O)CCC2(C)C1Cc1c(OC)oc(CO)c(C)c1=O (centres unmarked) [Compound 19] | 33.3 | 31 | 19.1 | 40.8 | 75.3 |  |  |  |  | 
C=C1CCC2C(C)(CCC=C(C)C)C(O)CCC2(C)C1Cc1c(OC)oc(C)c(C)c1=O (centres unmarked) [Compound 11] | 11.5 | 4.76 | 18.2 | 3.61 | 24.9 | 0.46 | 0.53 | 0.47% and 0.44% | without affecting other viruses | effect on sphere formation [6]: clearly inhibited sphere formation; population of ALDH-positive cells [7]: reduced the population of ALDH-positive cells; ALDH-positive cells ave (fold) [7]: 0.40 fold; ALDH-positive cells ave [7]: 0.57%; ALDH-positive cells (%) [7]: 0.4% and 0.9%
C=C1CC[C@H]2[C@]3(C)C[C@@H](C=C(C)C)O[C@H]3CC[C@]2(C)[C@@H]1Cc1c(O)c(C)c(C)oc1=O [Compound 5, subglutinol A] |  |  |  |  |  | 1.13 | 1.30 | 1.04% and 1.24% and 1.10% | without affecting other viruses | 
C=C1CC[C@H]2[C@]3(C)C[C@H](C=C(C)C)O[C@H]3CC[C@]2(C)[C@@H]1Cc1c(OC)oc(C)c(C)c1=O [Compound 24] |  |  |  |  |  |  |  |  | without affecting other viruses | 
C=C1CCC2C(C)(CCC=C(C)C)C(O)CCC2(C)C1Cc1c(OC)oc(C)c(C(=O)OC)c1=O (centres unmarked) [Compound 14] | 10.2 | 10.8 | 11.7 | 8.57 | 14.6 |  |  |  | without affecting other viruses | 
C=C1CC[C@@H]2[C@](C)(CC[C@H]3O[C@H](C=C(C)C)C[C@@]23C)[C@@H]1Cc1c(OC)oc(C)c(C)c1=O [Compound 22, O-methylated higginsianin A] |  | 3.33 | 3.79 | 4.78 | 11 | 0.41 | 0.47 | 0.40% and 0.42% |  | effect on sphere formation [6]: clearly inhibited sphere formation; population of ALDH-positive cells [7]: reduced the population of ALDH-positive cells; ALDH-positive cells ave (fold) [7]: 0.38 fold; ALDH-positive cells ave [7]: 0.53%; ALDH-positive cells (%) [7]: 0.4% and 0.5% and 0.7%
C=C1CC[C@@H]2[C@](C)(CC[C@H]3O[C@H](C=C(C)C)C[C@@]23C)[C@@H]1Cc1c(OC)oc(CO)c(C)c1=O [Compound 20] | 12.2 | 12.9 | 13.6 | 12.3 | 14.3 | 0.77 | 0.89 | 0.76% and 0.80% | without affecting other viruses | 
C=C1CC[C@H]2[C@]3(C)C[C@H](C=C(C)C)O[C@H]3CC[C@]2(C)[C@@H]1Cc1c(OC)oc(CO)c(C)c1=O [Compound 18] |  |  |  |  |  | 0.64 | 0.74 | 0.66% and 0.58% and 0.68% | without affecting other viruses | 
C=C1CC[C@H]2[C@]3(C)C[C@@H](C=C(C)C)O[C@H]3CC[C@]2(C)[C@@H]1Cc1c(OC)oc(CO)c(C)c1=O [Compound 17] | 12.8 | 13 | 14 | 10.8 | 15.2 | 0.65 | 0.75 | 0.66% and 0.68% and 0.60% | without affecting other viruses | 
C=C1CCC2C(C)(CCC=C(C)C)C(O)CCC2(C)C1Cc1c(OC)oc(CO)c(C)c1=O (centres unmarked) [Compound 16] |  |  |  |  |  | 0.87 | 1.00 | 0.62% and 1.01% and 0.96% |  | effect on sphere formation [6]: did not affect sphere formation; Log GI50 [1, 9]: -4.961 M; Log GI50 [2, 9]: -4.995 M; Log GI50 [3, 9]: -5.269 M; Log GI50 [4, 9]: -5.076 M; Log GI50 [5, 9]: -4.853 M
C=C1CCC2C(C)(CC(=O)C=C(C)C)C(O)CCC2(C)C1Cc1c(O)c(C)c(C)oc1=O (centres unmarked) [Compound 7] | 37 |  | 33.4 | 35.7 | 69.2 |  |  |  |  | 
C=C1CCC2C3(C)CC(C=C(C)C)OC3CCC2(C)C1Cc1c(OC)oc(C)c(C)c1=O (centres unmarked) [Compound 23] |  |  |  |  |  | 0.66 | 0.76 | 0.60% and 0.72% and 0.66% | without affecting other viruses | 
C=C1CC[C@@H]2[C@](C)(CC[C@H]3O[C@H](C=C(C)C)C[C@@]23C)[C@@H]1Cc1c(O)c(C)c(C)oc1=O [Compound 10, higginsianin A] |  |  |  |  |  |  |  |  | without affecting other viruses | 
